Laboratory results: patent US12428408B2, “Fused heterocyclic mescaline derivatives” (Enveric Biosciences Canada Inc., priority 2022, dated 2025)

How the values were obtained:
[1] = test system: Human NT2/D1 precursor cells (NT2/D1); experiment: Neuroplastogenicity assay using human model (NT2) neurons; assay type: cell-based; conditions: RA-treated NT2 cells, 1 μM, 48 hours, vs 0.1% DMSO
Method: The compound with formula A(XXXII) was assayed for neuroplastogenic potential using the following procedure. Human NT2/D1 precursor cells (NT2/D1) were purchased from the American Type Culture Collection (ATCC, Manassas, VA, USA). The neuronal differentiation was carried out as previously described (Roloff et al., 2015, PLOS ONE e0118536:1-14; Roloff et al., 2013, BMC Neuroscience 14:141-155) with minor modifications. First, NT2/D1 cells were seeded in T-25 suspension culture flasks (REF #690190, Greiner bio-one, Germany). Each flask contained a minimum of 5×10^6 cells in 10 ml of DMEM/F12 supplemented with 10% fetal bovine serum (FBS), 1% penicillin and streptomycin and 10 μM retinoic acid (RA medium) to start neuronal differentiation. The cells were cultured for 3 days in free floating medium. At the end of the incubation, cells were trypsinized and collected by centrifugation, mechanically dispersed, and counted. Counted cells were seeded on Poly D-Lysine (PDL) coated cover slips (12 mm; diameter round, Fisher Scientific; GG-12-PDL) containing minimum of 0.1×10^5 cells in culture medium without RA. The next day, culture medium was replaced with RA medium containing 2% of FBS. These cells were cultured for 5 days, with a change of RA medium two days later. For the neuronal outgrowth assay, after cells had successfully attached and established under coverslips, the RA medium was replaced with one of the following: (1) test molecules at one of two different concentrations (10 μm or 1 μm); (2) positive control ROCK inhibitor Y-27632, (Dihydrochloride, Sigma-Aldrich); (2) positive control ibuprofen (14883-1G; Sigma-Aldrich), or (4) negative control culture medium containing 2% of FBS. Cells under these conditions were incubated for 48 hours under standard conditions (37° C., 5% CO2) in an incubator prior to the immunofluorescent assay.
For the immunofluorescent assay, the treated cells housed under coverslips were collected after 48 hours of drug treatments. These coverslips washed with calcium chloride-free and magnesium chloride-free phosphate buffered saline (PBS) pH 7.4 (Gibco, #70011-044) and fixed using paraformaldehyde (PFA) 4% in PBS (#J61899, thermoscientific) for 15 min at room temperature (RT) and washed three times with 0.01% of Triton-X100 in PBS (PBST) to remove remaining PFA and to permeabilize the cells. Unspecific binding sites were blocked with 5% Bovine Serum Albumin (BSA) solution (#9048-46-8, Millipore) in PBST for 60 minutes at RT. Rabbit monoclonal antibody β-III-Tubulin (1:5,000, ab52623, Abcam) was applied overnight (O/N) at 4° C. […] Finally, the immunofluorescence images were detected by using Olympus VS110 slide scanner microscope. […]

[2] = target: 5-HT2A receptor (Homo sapiens, UniProt P28223); experiment: 5-HT2A receptor radioligand competition assay (SPA)
Sequence of 5-HT2A receptor (P28223 whole entry): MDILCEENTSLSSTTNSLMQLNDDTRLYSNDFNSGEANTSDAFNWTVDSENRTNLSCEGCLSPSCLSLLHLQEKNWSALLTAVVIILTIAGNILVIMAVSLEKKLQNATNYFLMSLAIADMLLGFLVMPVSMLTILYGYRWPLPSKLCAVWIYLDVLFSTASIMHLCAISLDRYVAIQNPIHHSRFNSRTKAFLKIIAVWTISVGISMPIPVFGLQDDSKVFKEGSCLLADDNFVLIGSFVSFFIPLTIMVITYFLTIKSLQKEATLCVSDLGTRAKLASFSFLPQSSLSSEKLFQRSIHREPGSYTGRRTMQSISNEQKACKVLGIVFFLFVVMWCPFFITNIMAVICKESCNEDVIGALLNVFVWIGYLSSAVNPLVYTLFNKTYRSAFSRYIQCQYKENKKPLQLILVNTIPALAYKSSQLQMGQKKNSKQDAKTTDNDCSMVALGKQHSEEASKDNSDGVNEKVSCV

[3] = target: T1, 5-HT1A receptor (Homo sapiens, UniProt P08908); experiment: 5-HT1A receptor radioligand competition assay (SPA); assay type: binding
T1 construct: purchased Perkin Elmer 6110501400UA
T1 sequence (P08908 1-422): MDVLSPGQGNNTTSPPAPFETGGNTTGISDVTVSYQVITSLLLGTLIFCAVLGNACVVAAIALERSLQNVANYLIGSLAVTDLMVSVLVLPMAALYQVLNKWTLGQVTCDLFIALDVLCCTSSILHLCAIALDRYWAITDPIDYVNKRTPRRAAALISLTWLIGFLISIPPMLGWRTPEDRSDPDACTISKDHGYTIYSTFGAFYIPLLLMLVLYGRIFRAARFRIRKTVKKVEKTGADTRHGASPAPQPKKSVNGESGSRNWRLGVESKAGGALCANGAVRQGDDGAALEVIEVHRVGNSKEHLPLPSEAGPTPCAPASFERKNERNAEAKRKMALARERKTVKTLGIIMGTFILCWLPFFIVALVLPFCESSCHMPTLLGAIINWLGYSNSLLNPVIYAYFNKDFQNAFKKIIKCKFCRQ

| Structure (SMILES) | neurite outgrowth (β-III-tubulin immunofluorescence) compared to negative control [1] | Ki [2] [nM] | Ki [3] [nM] |
| --- | --- | --- | --- |
| CC(Cc1ccc2c(c1)OCO2)N(C)CCc1c[nH]c2ccccc12 (stereo not shown) [A(XXXII)] | strong signs of neurite outgrowth | 465 | 465 |
| CC(C)Cc1ccc(C(C)C(=O)O)cc1 (stereo not shown) [ibuprofen, reference compound] | strong signs of neurite outgrowth | – | – |
